Assay results taken from the supplement of paper PMC10331698.
± gives the standard deviation of the averaged measurements.

Columns and labels:
Assay in all cases: level (log10 ratio to DMSO vehicle control); higher = higher biomarker level / cell amount than vehicle control
Conditions in all cases: in DMSO
[1] = compound: FC(F)(F)C(F)(F)C(F)(F)C(F)(F)C(F)(F)C(F)(F)C(F)(F)CCI [1-Iodo-1H,1H,2H,2H-perfluorononane]
Experimental: (§1)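 BioMAP Diversity Plus panel of 12 human primary cell co-culture systems (3C, 4H, LPS, SAg, BT, BF4T, BE3C, CASM3C, HDF3CGF, KF3CT, MyoF, Mphg). Compounds were added 1 h before stimulation and left for 24 h (MyoF 48 h; BT 72 h for soluble read-outs or 6 d for IgG). Biomarkers were read by ELISA, cytotoxicity by SRB, PBMC viability and proliferation by Alamar Blue. Each well value was divided by the mean of 8 DMSO control wells on the same plate and log10 transformed; duplicate blinded samples were tested at 4 concentrations.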

[2] = compound: O=S(=O)(O)C(F)(F)C(F)(F)C(F)(F)C(F)(F)C(F)(F)C(F)(F)C(F)(F)C(F)(F)F [Perfluorooctanesulfonic acid]
Experimental: as §1

Perfluorooctanamidine = compound: N=C(N)C(F)(F)C(F)(F)C(F)(F)C(F)(F)C(F)(F)C(F)(F)C(F)(F)F [Perfluorooctanamidine]
Experimental: as §1

[3] = compound: CC(C)(C)C(=O)CC(=O)C(F)(F)C(F)(F)C(F)(F)F [(Heptafluorobutanoyl)pivaloylmethane]
Experimental: as §1

1-(Perfluorohexyl)octane = compound: CCCCCCCCC(F)(F)C(F)(F)C(F)(F)C(F)(F)C(F)(F)C(F)(F)F [1-(Perfluorohexyl)octane]
Experimental: as §1

Hexafluoroglutaric acid = compound: O=C(O)C(F)(F)C(F)(F)C(F)(F)C(=O)O [Hexafluoroglutaric acid]
Experimental: as §1

Perfluorooctanamide = compound: NC(=O)C(F)(F)C(F)(F)C(F)(F)C(F)(F)C(F)(F)C(F)(F)C(F)(F)F [Perfluorooctanamide]
Experimental: as §1

Row | Test System | level (log10) ([1]; 6700 nM) | level (log10) ([1]; 20000 nM) | level (log10) ([2]; 6700 nM) | level (log10) ([2]; 20000 nM) | level (log10) ([2]; 60000 nM) | level (log10) (Perfluorooctanamidine; 6700 nM) | level (log10) (Perfluorooctanamidine; 20000 nM) | level (log10) (Perfluorooctanamidine; 60000 nM) | level (log10) ([3]; 6700 nM) | level (log10) ([3]; 20000 nM) | level (log10) ([3]; 60000 nM) | level (log10) (1-(Perfluorohexyl)octane; 6700 nM) | level (log10) (1-(Perfluorohexyl)octane; 20000 nM) | level (log10) (Hexafluoroglutaric acid; 6700 nM) | level (log10) (Hexafluoroglutaric acid; 20000 nM) | level (log10) (Hexafluoroglutaric acid; 60000 nM) | level (log10) (Perfluorooctanamide; 6700 nM) | level (log10) (Perfluorooctanamide; 20000 nM) | level (log10) (Perfluorooctanamide; 60000 nM)
1 | CASM3C:CD106/VCAM-1 | -0.019 ± 0.0099 | -0.0645 ± 0.012 | -0.035 ± 0.0028 | -0.038 ± 0.016 | -0.104 ± 0.041 | -0.0165 ± 0.00071 | -0.0195 ± 0.012 | -0.032 | -0.006 ± 0.014 | -0.004 ± 0.021 | -0.002 ± 0.03 | -0.023 ± 0.0014 | -0.0115 ± 0.021 | -0.0105 ± 0.03 | -0.0125 ± 0.036 | 0.012 ± 0.011 | -0.0245 ± 0.005 | -0.014 ± 0.028 | -0.004 ± 0.027
2 | CASM3C:CD141/Thrombomodulin | 0.0135 ± 0.0035 | 0.0065 ± 0.03 | -0.007 ± 0.0085 | -0.0115 ± 0.0078 | -0.017 ± 0.031 | -0.008 ± 0.016 | -0.0205 ± 0.005 | 0.043 | -0.008 ± 0.033 | -0.005 ± 0.018 | -0.038 ± 0.0042 | -0.0145 ± 0.00071 | -0.0165 ± 0.03 | -0.008 ± 0.0099 | -0.0175 ± 0.0021 | 0.043 ± 0.065 | -0.0225 ± 0.021 | 0.0155 ± 0.0021 | 0.015 ± 0.0071
3 | CASM3C:CD142/Tissue Factor | 0.0155 ± 0.049 | -0.055 ± 0.0028 | -0.035 ± 0.02 | -0.033 ± 0.048 | -0.0525 ± 0.09 | -0.022 ± 0.024 | -0.033 ± 0.0014 | 0.042 | -0.017 ± 0.0057 | -0.0275 ± 0.0035 | -0.037 ± 0.027 | -0.0265 ± 0.028 | -0.0295 ± 0.005 | 0.003 ± 0.033 | 0.0015 ± 0.005 | 0.0185 ± 0.021 | -0.0085 ± 0.046 | -0.0095 ± 0.0064 | -0.003 ± 0.051
4 | CASM3C:CXCL8/IL-8 | 0.004 ± 0.0042 | 0.004 ± 0.0028 | 0.001 ± 0.038 | 0.0045 ± 0.025 | 0.0485 ± 0.0021 | 0.011 ± 0.017 | 0.0075 ± 0.0092 | 0.053 | -0.006 ± 0.0042 | -0.018 ± 0.0028 | -0.0045 ± 0.025 | -0.001 ± 0.017 | 0.006 ± 0.0099 | -0.002 ± 0.017 | -0.016 ± 0.014 | 0.0075 ± 0.0064 | 0.013 ± 0.025 | 0.013 ± 0.016 | 0.044 ± 0.014
5 | CASM3C:CXCL9/MIG | -0.0355 ± 0.025 | -0.057 ± 0.042 | -0.0085 ± 0.00071 | -0.003 ± 0.0014 | 0.0705 ± 0.032 | -0.005 ± 0.013 | -0.017 ± 0.024 | 0.069 | -0.004 ± 0.0014 | -0.0085 ± 0.00071 | 0.006 ± 0.011 | -0.0115 ± 0.0021 | 0.0255 ± 0.005 | -0.0195 ± 0.019 | -0.02 ± 0.0085 | 0.022 ± 0.033 | -0.0205 ± 0.037 | 0.0135 ± 0.0021 | 0.0365 ± 0.032
6 | CASM3C:HLA-DR | 0.0055 ± 0.0064 | -0.007 ± 0.0071 | -0.0365 ± 0.012 | -0.0465 ± 0.016 | -0.0395 ± 0.052 | -0.0335 ± 0.016 | -0.0655 ± 0.011 | -0.022 | 0.011 ± 0.0014 | 0.0005 ± 0.0092 | 0.0255 ± 0.0035 | -0.0155 ± 0.015 | -0.0125 ± 0.005 | 0.0165 ± 0.049 | -0.015 ± 0.045 | 0.0055 ± 0.019 | 0.003 ± 0.041 | 0.0125 ± 0.0092 | 0.0005 ± 0.011
7 | CASM3C:IL-6 | -0.0105 ± 0.013 | 0.0315 ± 0.056 | -0.0375 ± 0.0078 | -0.0465 ± 0.005 | -0.061 ± 0.099 | -0.046 ± 0.023 | -0.041 ± 0.035 | 0.041 | -0.0155 ± 0.0064 | -0.0375 ± 0.018 | -0.0145 ± 0.028 | -0.019 ± 0.031 | 0.0205 ± 0.023 | -0.0175 ± 0.0035 | -0.015 ± 0.021 | 0.022 ± 0.082 | 0.0435 ± 0.036 | -0.0225 ± 0.015 | 0.008 ± 0.023
8 | CASM3C:LDLR | -0.016 ± 0.021 | 0.026 ± 0.024 | -0.002 ± 0.0085 | -0.007 ± 0.0014 | -0.0165 ± 0.032 | 0.012 ± 0.013 | 0.036 ± 0.0085 | 0.108 | -0.004 ± 0.017 | -0.0085 ± 0.0035 | -0.0075 ± 0.018 | -0.0125 ± 0.00071 | 0.019 ± 0.014 | -0.009 ± 0.0099 | -0.0175 ± 0.026 | -0.015 ± 0.014 | -0.0175 ± 0.0035 | 0.0135 ± 0.026 | 0.031 ± 0.027
9 | CASM3C:M-CSF | -0.0035 ± 0.0078 | 0.0125 ± 0.028 | -0.0135 ± 0.016 | 0.009 ± 0.0028 | -0.009 ± 0.03 | -0.0095 ± 0.021 | -0.025 ± 0.028 | 0.034 | 0.002 ± 0.017 | -0.0165 ± 0.013 | -0.016 ± 0.014 | -0.0095 ± 0.013 | 0.0125 ± 0.036 | -0.0135 ± 0.022 | -0.0185 ± 0.033 | 0.018 ± 0.018 | -0.0055 ± 0.04 | 0.0035 ± 0.03 | 0.027 ± 0.048
10 | CASM3C:PAI-I | 0.0015 ± 0.00071 | 0.0035 ± 0.00071 | -0.001 ± 0.0071 | 0 ± 0.0014 | 0.0095 ± 0.0021 | 0.0055 ± 0.012 | 0.0015 ± 0.0064 | 0.022 | -0.004 ± 0.0028 | -0.0035 ± 0.0064 | 0.003 ± 0.0099 | -0.011 ± 0.0014 | 0.0035 ± 0.0078 | -0.0015 ± 0.015 | -0.0005 ± 0.0064 | 0.0075 ± 0.0064 | -0.0015 ± 0.0064 | 0.004 ± 0.0057 | -0.0015 ± 0.016
11 | CASM3C:Proliferation | -0.001 | 0.0105 ± 0.04 | 0.006 ± 0.042 | 0.0055 ± 0.022 | 0.057 ± 0.02 | 0.0185 ± 0.0078 | 0.0085 ± 0.0035 | -0.062 | -0.032 ± 0.03 | 0.0195 ± 0.0092 | -0.017 ± 0.037 | -0.0005 ± 0.067 | 0.0175 ± 0.046 | -0.015 ± 0.083 | -0.029 ± 0.0071 | 0.004 ± 0.0071 | -0.0135 ± 0.005 | -0.036 ± 0.027 | -0.0415 ± 0.015
12 | CASM3C:SRB | -0.0025 ± 0.0021 | -0.0015 ± 0.0064 | 0.003 ± 0.0042 | 0.0005 ± 0.0064 | 0.0095 ± 0.011 | -0.0015 ± 0.011 | -0.0105 ± 0.00071 | -0.018 | 0.01 ± 0.0014 | -0.002 ± 0.0014 | 0.0035 ± 0.00071 | -0.0025 ± 0.0035 | -0.0085 ± 0.00071 | -0.001 ± 0.0028 | -0.0035 ± 0.0021 | 0.0065 ± 0.005 | 0 ± 0.0071 | -0.002 ± 0.0014 | -0.003 ± 0.0014
13 | CASM3C:Serum Amyloid A | -0.007 ± 0.031 | 0.0135 ± 0.076 | 0.0035 ± 0.0021 | -0.017 ± 0.0014 | -0.005 ± 0.04 | 0.001 ± 0.0014 | -0.0085 ± 0.018 | 0.053 | 0.014 ± 0.035 | 0.001 ± 0.064 | -0.009 ± 0.024 | -0.02 ± 0.0057 | 0.0055 ± 0.066 | 0.0395 ± 0.049 | 0.027 ± 0.018 | 0.0085 ± 0.019 | -0.034 ± 0.044 | -0.0465 ± 0.069 | -0.062 ± 0.051
14 | HDF3CGF:CCL2/MCP-1 | -0.034 ± 0.017 | -0.018 ± 0.016 | -0.005 ± 0.0042 | -0.013 ± 0.0071 | 0.01 ± 0.033 | -0.0075 ± 0.0035 | -0.005 ± 0.018 | -0.068 | -0.0285 ± 0.016 | 0.027 | -0.0065 ± 0.025 | -0.0185 ± 0.005 | -0.004 ± 0.013 | -0.01 ± 0.0028 | -0.0215 ± 0.012 | -0.005 ± 0.0042 | -0.023 ± 0.0057 | -0.0145 ± 0.022 | -0.033 ± 0.0014
15 | HDF3CGF:CD54/ICAM-1 | -0.0105 ± 0.016 | 0.0095 ± 0.0035 | -0.025 ± 0.013 | -0.0105 ± 0.00071 | -0.033 ± 0.014 | -0.0235 ± 0.0064 | -0.014 ± 0.013 | -0.072 | 0 ± 0.0057 | -0.0075 ± 0.013 | 0.0065 ± 0.00071 | 0.0025 ± 0.005 | -0.0055 ± 0.037 | 0.001 ± 0.018 | 0.0035 ± 0.013 | 0.004 ± 0.016 | -0.009 | 0.002 ± 0.0085 | -0.02 ± 0.016
